The results in this text go back to PubChem BioAssay AID1508610 (The Scripps Research Institute Molecular Screening Center, 2020).

This assay has as its target G-protein coupled receptor 151 (Homo sapiens) (UniProt Q8TDV0). Nature of the assay: GPR151 activator potency, dose response, cell-based (AID 1508610). The conditions noted are these: cell-based GPR151 activation reporter.

Active and inactive are the calls of the source. The rule behind the calls is not given here. Bounds are passed on as bounds.

Chain of G-protein coupled receptor 151 (Homo sapiens) (Q8TDV0 whole entry, looked up): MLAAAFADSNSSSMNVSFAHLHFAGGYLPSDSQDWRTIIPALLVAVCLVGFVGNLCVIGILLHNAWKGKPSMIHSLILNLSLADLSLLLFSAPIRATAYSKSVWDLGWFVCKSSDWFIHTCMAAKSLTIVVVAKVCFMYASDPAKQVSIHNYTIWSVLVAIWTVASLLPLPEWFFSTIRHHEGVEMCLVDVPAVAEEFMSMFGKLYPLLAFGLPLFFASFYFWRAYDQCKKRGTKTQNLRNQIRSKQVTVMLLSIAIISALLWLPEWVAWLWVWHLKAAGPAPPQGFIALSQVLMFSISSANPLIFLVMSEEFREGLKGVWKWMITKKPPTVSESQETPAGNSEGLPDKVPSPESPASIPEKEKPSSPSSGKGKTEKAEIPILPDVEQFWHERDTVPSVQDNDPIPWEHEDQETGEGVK

Regarding `COc1ccc(-c2noc(CCC(=O)Nc3ccc(C)c(C)c3)n2)cc1`, the EC50 was > 28 µM (inactive).

Consider `COc1ccc(N(CC(=O)Nc2ccccc2-c2ccccc2)S(C)(=O)=O)cc1`, for which the EC50 was > 28 µM (inactive).

With `O=C1/C(=C\c2ccncc2)SC(=S)N1Cc1ccccc1`, the EC50 entry was “inactive”.

As for `Cc1ccc(-c2nc(-c3ccccn3)no2)cc1`, the EC50 is > 31.3 µM (inactive).

Take `COc1ccc(N2C(=O)NC3CC2(C)Oc2c(OC)cccc23)c(OC)c1` (stereo unspecified): the EC50 was > 28.7 µM (inactive).

Turning to `O=C(COc1ccc(C(=O)NCCc2ccccc2)cc1)Nc1ccccc1F`, the EC50 is > 28 µM (inactive).

With `Cn1c(=O)[nH]c(=O)c2c1nc(N1CCN(c3cccc(Cl)c3)CC1)n2Cc1ccccc1`, the EC50 is > 22.4 µM (inactive).

Consider `C=CCN1C(=O)/C(=C/c2ccc(OCC(=O)O)cc2)S/C1=N/c1nccs1`, for which the EC50 is > 28 µM (inactive).

For `CN1CCN(c2ccc(/C=C(\C#N)C(N)=O)cc2[N+](=O)[O-])CC1`, the EC50 was > 28 µM (inactive).

In the case of `CCn1c(SCC(=O)c2ccccc2)nnc1C(C)C`, the EC50 is > 28 µM (inactive).

Take `COc1cccc(NC(=O)c2oc3ccc4c(c3c2C)C(=O)CC(C)(C)O4)c1`: the EC50 is > 28 µM (inactive).

Regarding `O=C(N1CCN(Cc2ccccc2)CC1)C(Cl)(Cl)Cl`, the EC50 is > 28 µM (inactive).

Turning to `COc1cccc(Nc2nc(Nc3cc(C)ccc3C)nc(N3CCOCC3)n2)c1`, the EC50 is > 26.2 µM (inactive).

Consider `COc1ccc(-c2cn3cc(C(=O)O)ccc3n2)cc1`, for which the EC50 was > 29.2 µM (inactive).

For `COc1cc(C2CC(=O)c3c([nH]c(C(=O)OCCSC)c3C)C2)cc(OC)c1OC` (stereo unspecified), the EC50 is 0.0014 µM.

`CC(=O)OCC1=C(C(=O)O)N2C(=O)[C@@H](NC(=O)Cc3cccs3)[C@H]2SC1`: the EC50 was > 28 µM (inactive).

For the molecule `CC[C@@H](C(=O)C(C)[C@@H](O)[C@H](C)CCc1ccc(C)c(O)c1C(=O)O)C1OC(CC)(C2CC[C@](O)(CC)[C@H](C)O2)C[C@@H]1C` (stereo partly specified), the EC50 result is “inactive”.

On to `CCc1ccccc1NC(=S)N(CCc1ccc(OC)c(OC)c1)Cc1cccnc1`, for which the EC50 is > 24.3 µM (inactive).

As to `O=C(Nc1ccc(Oc2cc3ccccc3cc2Cl)c(Cl)c1)c1cc(Br)cc(Br)c1O`, the EC50 was > 17.2 µM (inactive).

Consider `Cc1cccc(N2CCN(C(=O)c3ccc(S(=O)(=O)c4ccc(F)cc4)c([N+](=O)[O-])c3)C(C)C2)c1` (stereo unspecified), for which the EC50 was > 23.3 µM (inactive).

In the case of `Cn1c2c(c(=O)n(C)c1=O)C(c1cccc(F)c1)C1=C(CC(C)(C)CC1=O)N2` (stereo unspecified), the EC50 is > 27.8 µM (inactive).

On to `CC(=O)Oc1ccccc1N1C(=O)c2cccc([N+](=O)[O-])c2C1=O`, for which the EC50 was > 35.6 µM (inactive).

`COc1ccc(-c2nc3ccccc3[nH]2)cc1`: the EC50 was > 35 µM (inactive).

For `Cc1ccc(Nc2ncnc3sc(C)c(C)c23)cc1F`, the EC50 was > 31.6 µM (inactive).

As to `O=C(NCCO)c1ccc2nc(-c3csc4ccccc34)sc2c1`, the EC50 is > 28.1 µM (inactive).

As for `Cn1c(=O)c2c(SCCC3OCCO3)nc(C3CCCCC3)nc2n(C)c1=O`, the EC50 is > 27.6 µM (inactive).

For `Clc1ccccc1/C=C/c1nc(-c2ccccn2)no1`, the EC50 was > 28 µM (inactive).

`Cc1ccc2nc(-c3ccccc3)[nH]c2c1`: the EC50 is > 38.4 µM (inactive).

`Cc1ccc(NC(=O)/C(C#N)=C\c2ccccc2O)cc1C`: the EC50 is > 28 µM (inactive).

Regarding `Cc1ccc(C(=O)Nc2cccc(C(=O)O)c2)cc1`, the EC50 is > 32.6 µM (inactive).

As for `CN(C)CCN(C)C(=O)c1cccc(OC2CCN(C3CCSCC3)CC2)c1`, the EC50 is > 28 µM (inactive).

As to `CCOc1ccc(-n2c(SCC(=O)Nc3ccccc3CC)nc3n[nH]c(C)c3c2=N)cc1`, the EC50 was > 27.1 µM (inactive).

Consider `CC(C)(C)NS(=O)(=O)c1ccc(NC(=O)COc2ccc(Br)cc2)cc1`, for which the EC50 is > 28 µM (inactive).

As for `COc1ccccc1N1CCN(C(=O)c2cnc(N3CCN(c4ncccn4)CC3)c3ccccc23)CC1`, the EC50 is > 20.1 µM (inactive).

For `CC(=O)Oc1ccccc1C(=O)Nc1ncc([N+](=O)[O-])s1`, the EC50 was > 28 µM (inactive).

On to `Cc1ccnc(SCc2cc(=O)c(OC(=O)c3cc(Cl)ccc3[N+](=O)[O-])co2)n1`, for which the EC50 was > 28.4 µM (inactive).

`O=C(/C=C/c1cccc([N+](=O)[O-])c1)NC1C2CC3CC(C2)CC1C3` (stereo unspecified): the EC50 was > 34 µM (inactive).

With `CCC(=O)Oc1ccc2cc(-c3ccc(OC)c(OC)c3)c(=O)oc2c1`, the EC50 was > 28.5 µM (inactive).

Consider `CCC(C)c1ccccc1NC(=S)NC(C)=O` (stereo unspecified), for which the EC50 was > 28 µM (inactive).

Consider `COc1ccc(NC(=O)C2C3CCC(C3=C(C)C)C2C(=O)O)cc1` (stereo unspecified), for which the EC50 was > 28 µM (inactive).

Consider `COc1ccc(C(=O)Nc2noc3ccccc23)cc1`, for which the EC50 was > 28 µM (inactive).

As for `CCOc1ccc(C(=O)N2CCC(c3ncncc3-c3ccncc3)CC2)o1`, the EC50 was > 28 µM (inactive).

Consider `O=C(NN=C1CCCCC1)C(O)(c1ccccc1)c1ccccc1`, for which the EC50 was > 28 µM (inactive).

In the case of `COc1cc(OC)cc(C(=O)Nc2ccc3c(c2)OCO3)c1`, the EC50 was > 31.5 µM (inactive).

For `CCOc1cc(/C=c2/sc3n(c2=O)CCN=3)ccc1O`, the EC50 is > 40 µM (inactive).

In the case of `O=C(O)c1ccc(/C=C2\SC(=S)N(CCS(=O)(=O)O)C2=O)cc1`, the EC50 is > 28.5 µM (inactive).

Take `CCN1/C(=C/c2ccc3cc(C)ccc3[n+]2CC)Sc2ccc(-c3ccccc3)cc21`: the EC50 entry is “inactive”.

Turning to `Cc1ccc(Nc2nc(N(C)C)nc3c2cnn3C)cc1C`, the EC50 was > 28.4 µM (inactive).

In the case of `COc1ccc(/C=C/C(=O)Nc2ccccc2C(=O)O)cc1OC`, the EC50 is > 28 µM (inactive).

With `COc1ccc(N2CCN(C3CC(=O)NC3=O)CC2)cc1` (stereo unspecified), the EC50 is > 28 µM (inactive).

Take `C=CCn1c(C)cc(C2=NNC(=NCC)SC2)c1C`: the EC50 was > 28.7 µM (inactive).

In the case of `Cc1ccc2c(c1)CN(CCC(=O)NCCCn1nnc3ccccc31)CC(C)O2` (stereo unspecified), the EC50 was > 28 µM (inactive).

`O=C(CN1C(=O)C(c2ccccc2)=NC12CCCC2)Nc1ccccc1`: the EC50 is > 28 µM (inactive).

As for `COc1ccc(-c2ccc(C(=O)Nc3ccc(NC(C)=O)cc3)s2)cc1`, the EC50 is > 26.6 µM (inactive).

As for `Cc1ccc(NC(=O)/C(=C/c2cccc([N+](=O)[O-])c2)NC(=O)c2cccs2)c(Br)c1`, the EC50 was > 18.7 µM (inactive).

Take `O=C(NCCOc1ccccc1)c1ccc(-c2ccc(N3CCOCC3)nc2)s1`: the EC50 is > 33 µM (inactive).

Consider `Cc1ccc2nc(-c3ccc(O)cc3)[nH]c2c1`, for which the EC50 is > 28 µM (inactive).

Regarding `O=c1oc2ccccc2cc1-c1cn2ccccc2n1`, the EC50 is > 34.7 µM (inactive).

As for `COc1cc(S(=O)(=O)N2CCN(c3ccc(C)c(C)c3)CC2)ccc1F`, the EC50 is > 28 µM (inactive).

As to `CCOC(=O)c1cc(C)n(CCc2ccccc2)c1C`, the EC50 is > 39.1 µM (inactive).

Take `N#Cc1cccc(C(=O)NC2CCCC2)c1`: the EC50 is > 31.4 µM (inactive).

For the molecule `N#Cc1ccc(NC(=O)COC(=O)CCC(=O)c2ccc3c(c2)OCCO3)cc1`, the EC50 is > 28.4 µM (inactive).

With `Cc1cccc(-c2cnc(C)nc2C2CCCN(C(=O)CN(C)C)C2)c1` (stereo unspecified), the EC50 is > 28 µM (inactive).

As for `Cc1cc2c(cc1C)C(c1cc([N+](=O)[O-])ccc1Cl)CC(=O)N2` (stereo unspecified), the EC50 is > 33.6 µM (inactive).

On to `COCCn1c(C)cc(C(=O)COC(=O)c2cccc(O)c2)c1C`, for which the EC50 is > 30.4 µM (inactive).

Consider `Cc1c(C(=O)NCc2ccco2)oc2ccc(S(=O)(=O)N(C)C3CCCCC3)cc12`, for which the EC50 was > 28 µM (inactive).

For the molecule `NC[C@H]1O[C@H](O[C@H]2[C@H](O)[C@@H](O[C@H]3O[C@H](CO)[C@@H](O)[C@H](N)[C@H]3O)[C@H](N)C[C@@H]2N)[C@H](N)C[C@@H]1O`, the EC50 is > 28 µM (inactive).

Take `Nc1ncnc2c1ccn2[C@@H]1O[C@H](CO)[C@@H](O)[C@H]1O`: the EC50 was 3.11 µM.

For `COc1ccc(Cl)cc1NC(=O)Nc1cccc([N+](=O)[O-])c1C`, the EC50 was > 28 µM (inactive).

As for `COc1ccc(C(=O)Nc2ccc(-n3nncc3C(C)(C)C)cc2)cc1`, the EC50 is > 31.7 µM (inactive).

For the molecule `COc1cccc2oc(-c3ccccc3)cc(=O)c12`, the EC50 was > 28 µM (inactive).

Take `CC(=O)c1ccc(NC(=O)COC(=O)c2ccc3c(c2)nc(C)n3-c2ccccc2)cc1`: the EC50 is > 28.8 µM (inactive).

For the molecule `Cc1csc2ncc(C(=O)N3CCc4ccccc43)c(=O)n12`, the EC50 is > 28 µM (inactive).

On to `O=C(O)c1cccc(COc2ccc3ccccc3c2)c1`, for which the EC50 was > 28 µM (inactive).

Turning to `CCOc1ccc(-c2n[nH]c(=S)n2-c2ccccc2)cc1`, the EC50 result was “inactive”.

`O=C(NC1CC1)c1ccc(-c2ccc(N3CCOCC3)nc2)s1`: the EC50 is > 27.6 µM (inactive).

Consider `CC(=O)Oc1cccc(N2C(=O)C3C4c5ccccc5C(C)(c5ccccc54)C3C2=O)c1` (stereo unspecified), for which the EC50 is 1e-05 µM.

Regarding `O=C(COc1ccccc1Cl)Nc1nccs1`, the EC50 was > 39.1 µM (inactive).

Regarding `COc1ccccc1OCC(=O)Nc1ccc(S(=O)(=O)NC(C)=O)cc1`, the EC50 was > 28 µM (inactive).

For `Fc1cccc(-c2cc3nc4c(c(N5CCOCC5)n3n2)CCC4)c1`, the EC50 is > 28 µM (inactive).

`COc1ccc(-c2nc(-c3ccccn3)no2)cc1`: the EC50 is > 35.9 µM (inactive).

As to `COc1ccc(/C=C2/NC(=O)N(c3cccc(Cl)c3)C2=O)c(OC)c1`, the EC50 was > 28 µM (inactive).

As to `O=C(c1ccc(CNS(=O)(=O)c2ccc(Cl)cc2)cc1)N1CCCC1`, the EC50 was > 31.6 µM (inactive).

Take `Clc1nc(NCc2ccccc2)c2ncn(-c3ccccc3)c2n1`: the EC50 is > 28.1 µM (inactive).

Turning to `N=C1c2ccccc2CN1CC(=O)c1ccccc1`, the EC50 was > 27.4 µM (inactive).

In the case of `O=c1oc2cc(O)ccc2cc1-c1ccccc1`, the EC50 is > 28.2 µM (inactive).
